Source: PubChem BioAssay (NCI)
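Here, GI50 denotes the concentration required for 50% inhibition of growth. At the TGI there is no net growth.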

How the values were obtained:
Experiment in all cases: NCI anticancer screen, dose series, 384-well format; in the data active = GI50 below about 0.43 µM; inactive = the rest
NCI/ADR-RES ovarian = system: NCI/ADR-RES ovarian
HOP-92 NSCLC = system: HOP-92 NSCLC
IGROV1 ovarian = system: IGROV1 ovarian
SF-539 CNS = system: SF-539 CNS
MALME-3M melanoma = system: MALME-3M melanoma
SNB-19 CNS = system: SNB-19 CNS
KM12 colon = system: KM12 colon
CAKI-1 renal = system: CAKI-1 renal
SK-OV-3 ovarian = system: SK-OV-3 ovarian
T-47D breast = system: T-47D breast
A498 renal = system: A498 renal
SF-268 CNS = system: SF-268 CNS
LOX IMVI melanoma = system: LOX IMVI melanoma
786-0 renal = system: 786-0 renal
DU-145 prostate = system: DU-145 prostate
A549 NSCLC = system: A549 NSCLC
UO-31 renal = system: UO-31 renal
MCF7 breast = system: MCF7 breast
HCC-2998 colon = system: HCC-2998 colon
HCT-15 colon = system: HCT-15 colon
UACC-257 melanoma = system: UACC-257 melanoma
ACHN renal = system: ACHN renal
OVCAR-4 ovarian = system: OVCAR-4 ovarian
TK-10 renal = system: TK-10 renal
M14 melanoma = system: M14 melanoma
EKVX NSCLC = system: EKVX NSCLC
SN12C renal = system: SN12C renal
OVCAR-5 ovarian = system: OVCAR-5 ovarian
NCI-H226 lung = system: NCI-H226 lung
NCI-H322M lung = system: NCI-H322M lung

C/C(=C\c1csc(C)n1)[C@@H]1C[C@@H]2O[C@]2(C)CCC[C@H](C)[C@H](O)[C@@H](C)C(=O)C(C)(C)[C@@H](O)CC(=O)N1
10.3 nM: TGI (M14 melanoma)
> 100000 nM: TGI (HOP-92 NSCLC) | TGI (IGROV1 ovarian) | TGI (MALME-3M melanoma) | TGI (SNB-19 CNS) | TGI (KM12 colon) | TGI (CAKI-1 renal) | TGI (SK-OV-3 ovarian) | TGI (T-47D breast) | TGI (A498 renal) | TGI (SF-268 CNS) | TGI (LOX IMVI melanoma) | TGI (A549 NSCLC) | TGI (UO-31 renal) | TGI (MCF7 breast) | TGI (UACC-257 melanoma) | TGI (ACHN renal) | TGI (OVCAR-4 ovarian) | TGI (TK-10 renal) | TGI (EKVX NSCLC) | TGI (SN12C renal) | TGI (OVCAR-5 ovarian) | TGI (NCI-H226 lung) | TGI (NCI-H322M lung)
13.5 nM: TGI (SF-539 CNS)
active: GI50 (IGROV1 ovarian) 27.6 nM | GI50 (SNB-19 CNS) 15.7 nM | GI50 (UO-31 renal) 60.5 nM | GI50 (HCT-15 colon) 14.1 nM | GI50 (ACHN renal) 40.3 nM | GI50 (TK-10 renal) 55.2 nM | GI50 (EKVX NSCLC) 24 nM | GI50 (NCI-H322M lung) 10.7 nM
inactive: GI50 (NCI/ADR-RES ovarian) 437 nM
384 nM: TGI (HCT-15 colon)
87.1 nM: TGI (786-0 renal)
10.7 nM: TGI (DU-145 prostate)
1910 nM: TGI (NCI/ADR-RES ovarian)
12.3 nM: TGI (HCC-2998 colon)
